Experimental data as given in PubChem BioAssay AID1963851 (Molecular Pharmacology Branch, DTP, NCI, 2024).

Tested on: 188146-221-R-J1-PDC complex spheroid viability
Assay: Anticancer human tumor 188146-221-R-J1-PDC patient-derived colon adenocarcinoma cell line growth inhibition [POLQ]
Conditions: for IC50: curve of first compound; for viability, T/C: stronger effect = lower value; active means viability on the fitted dose curve at most 10% of control; inactive means the rest
Protocol: Multicellular complex tumor spheroid response to Polymerase (POL) inhibitors (novobiocin, ART-558, RP6685) in combination with a variety of drugs and investigational agents in selected tumor cell lines
The POL inhibitors (novobiocin, ART-558, and RP6685) were evaluated both individually and in combination with standard of care and investigational anticancer small molecules within a complex spheroid model of solid tumors. . Complex spheroids include a stromal component modeled by human endothelial cells (HUVEC) and fibroblasts modeled by human mesenchymal stem cells (MSCs). The concentration ranges selected for each drug and investigational agent were based upon clinically achievable concentrations if the clinical Cmax of the agent was known.
Compounds. The drugs and investigational agents: novobiocin (NSC847541), ART-558 (NSC835418), RP-6685 (NSC848927), peposertib (NSC802822), ceralasertib (NSC780249), elimusertib (NSC800525), camonsertib (NSC841442), AZD-1390 (NSC803789), olaparib (NSC753686), talazoparib (NSC767125), rucaparib (NSC756644), sotorasib (NSC818433), MRTX-1133 (NSC836407), SN-38 (NSC673596), topotecan (NSC609699), epotoside (NSC141540), doxorubicin (NSC123127), gemcitabine (NSC613327), 5-fluorouracil (NSC19893), paclitaxel (NSC125973), vemurafenib (NSC761431), MSA-2 (NSC828583), SN-011 (NSC837082), adavosertib (NSC754352), prexasertib (NSC758257), carboplatin (NSC241240) and oxaliplatin (NSC266046), were obtained from the National Cancer Institute (NCI) Developmental Therapeutics Program Chemical Repository (21). The FDA-approved anticancer drug set is available from the Developmental Therapeutics Program at https://dtp.cancer.gov/organization/dscb/obtaining/. […] The stock solutions were prepared in dimethyl sulfoxide (DMSO, Sigma-Aldrich, St. Louis, MO, cat. D2650), except for the platinum compounds which were prepared in saline (Quality Biological, Gaithersburg, MD, cat. 114-055-101), at 800-fold the tested concentration and stored at -70 degrees C prior to their use. All drugs and investigational agents were tested over a range starting from a high concentration at or near the clinical Cmax and decreasing in half-log increments. If the clinical Cmax for an agent had not been determined, the highest concentration tested was 10 microM, except for SN-38, which was tested at a high concentration of 1 microM.
Cell Culture. All cells were maintained in an incubator at 37 degrees C and 5% CO2 with 95% humidity. The PDC lines were cultured according to standard operating procedures established by the NCI PDMR (https://pdmr.cancer.gov). Table 3 of the manuscript, lists the cell lines along with the number of the three cell types plated to form the mct-spheroids and media for tumor cell growth. After thawing, all PDC lines, except 997537-175-T-J1-PDC and 415267-285-R-J2-PDC, were cultured in Matrigel-coated flasks prepared with a working solution of 1X Ham's F-12 nutrient mix, without supplementation (Thermo Fisher Scientific, cat. 11765054), 100 U/mL penicillin-streptomycin (Thermo Fisher Scientific, cat. 15140122), and 2.5% Matrigel (Corning Inc., Corning, NY, cat. 354248) for the first three passages. The two PDC lines 997537-175-T-J1-PDC and 415267-285-R-J2-PDC were cultured on uncoated flasks. The 857933-349-R-J2-PDC line was cultured in 6C/Colon 1B media containing advanced DMEM/F-12 (Thermo Fisher Scientific, cat. 12634028), 10 mM HEPES (Thermo Fisher Scientific, cat. 15630080), 1X GlutaMAX supplement (Thermo Fisher Scientific, cat. 35050061), 0.1 mg/mL primocin (InvivoGen, San Diego, CA, cat. ant-pm-2), 10% defined fetal bovine serum, heat inactivated (HyClone Laboratories Inc., Logan, UT, cat. SH30070.03HI), 50% L-WRN conditioned media (ATCC, cat. CRL-3276), 1.25 mM N-Acetyl-L-cysteine (Sigma-Aldrich, cat. A9165), 10 mM nicotinamide (Sigma-Aldrich, cat. N0636), 1X B-27 supplement (Thermo Fisher Scientific, cat. 17504044), 1X N-2 supplement (Thermo Fisher Scientific, cat. […]

[1] = second compound 0.0316 µM, first compound 0.0316 µM
[2] = second compound 0.0316 µM, first compound 0.1 µM
[3] = second compound 0.0316 µM, first compound 0.316 µM
[4] = second compound 0.0316 µM, first compound 1 µM
[5] = second compound 0.1 µM, first compound 0.0316 µM
[6] = second compound 0.1 µM, first compound 0.1 µM
[7] = second compound 0.1 µM, first compound 0.316 µM
[8] = second compound 0.1 µM, first compound 1 µM
[9] = second compound 0.316 µM, first compound 0.0316 µM
[10] = second compound 0.316 µM, first compound 0.1 µM
[11] = second compound 0.316 µM, first compound 0.316 µM
[12] = second compound 0.316 µM, first compound 1 µM
[13] = second compound 1 µM, first compound 0.0316 µM
[14] = second compound 1 µM, first compound 0.1 µM
[15] = second compound 1 µM, first compound 0.316 µM
[16] = second compound 1 µM, first compound 1 µM
[17] = second compound 3.16 µM, first compound 0.0316 µM
[18] = second compound 3.16 µM, first compound 0.1 µM
[19] = second compound 3.16 µM, first compound 0.316 µM
[20] = second compound 3.16 µM, first compound 1 µM
[21] = second compound 10 µM, first compound 0.0316 µM
[22] = second compound 10 µM, first compound 0.1 µM
[23] = second compound 10 µM, first compound 0.316 µM
[24] = second compound 10 µM, first compound 1 µM
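Further: spheroids exposed to compounds for seven days.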

COc1cccc(OCCCN)c1-c1cc(Nc2cnc(C#N)cn2)n[nH]1 + Nc1ccc(C#CCN(C(=O)Cc2ncc(C(F)(F)F)cc2C(F)(F)F)c2ccc(F)cc2)nn1
0.0573 µM: IC50 (second compound 0.1 µM)
0.0375 µM: IC50 (second compound 3.16 µM)
inactive: viability, T/C (second compound 0.0316 µM, first compound 0.00316 µM) 94.9% | viability, T/C (second compound 0.0316 µM, first compound 0.01 µM) 96% | viability, T/C [1] 77.4% | viability, T/C [2] 32.7% | viability, T/C [3] 16.2% | viability, T/C [4] 13.6% | viability, T/C (second compound 0.1 µM, first compound 0.00316 µM) 104% | viability, T/C (second compound 0.1 µM, first compound 0.01 µM) 109% | viability, T/C [5] 66.6% | viability, T/C [6] 34.3% | viability, T/C [7] 17.3% | viability, T/C [8] 14% | viability, T/C (second compound 0.316 µM, first compound 0.00316 µM) 106% | viability, T/C (second compound 0.316 µM, first compound 0.01 µM) 99.1% | viability, T/C [9] 59.1% | viability, T/C [10] 30.9% | viability, T/C [11] 16.9% | viability, T/C [12] 12.2% | viability, T/C (second compound 1 µM, first compound 0.00316 µM) 108% | viability, T/C (second compound 1 µM, first compound 0.01 µM) 111% | viability, T/C [13] 46.8% | viability, T/C [14] 28.2% | viability, T/C [15] 15.6% | viability, T/C [16] 14% | viability, T/C (second compound 3.16 µM, first compound 0.00316 µM) 91.5% | viability, T/C (second compound 3.16 µM, first compound 0.01 µM) 85.1% | viability, T/C [17] 54.3% | viability, T/C [18] 23.7% | viability, T/C [19] 15.6% | viability, T/C [20] 13.7% | viability, T/C (second compound 10 µM, first compound 0.00316 µM) 119% | viability, T/C (second compound 10 µM, first compound 0.01 µM) 87.8% | viability, T/C [21] 47.6% | viability, T/C [22] 21.7% | viability, T/C [23] 17% | viability, T/C [24] 15.4%
0.0299 µM: IC50 (second compound 1 µM)
0.0642 µM: IC50 (second compound 0.0316 µM)
0.0477 µM: IC50 (second compound 0.316 µM)
0.0286 µM: IC50 (second compound 10 µM)

O=c1[nH]cc(F)c(=O)[nH]1 + Nc1ccc(C#CCN(C(=O)Cc2ncc(C(F)(F)F)cc2C(F)(F)F)c2ccc(F)cc2)nn1
2.14 µM: IC50 (second compound 0.316 µM)
1.62 µM: IC50 (second compound 3.16 µM)
2.92 µM: IC50 (second compound 0.0316 µM)
3.66 µM: IC50 (second compound 1 µM)
1.99 µM: IC50 (second compound 10 µM)
2.73 µM: IC50 (second compound 0.1 µM)
inactive: viability, T/C [1] 116% | viability, T/C [2] 111% | viability, T/C [3] 83.8% | viability, T/C [4] 54.1% | viability, T/C (second compound 0.0316 µM, first compound 3.16 µM) 46.6% | viability, T/C (second compound 0.0316 µM, first compound 10 µM) 52.4% | viability, T/C [5] 121% | viability, T/C [6] 105% | viability, T/C [7] 72.6% | viability, T/C [8] 58% | viability, T/C (second compound 0.1 µM, first compound 3.16 µM) 50.3% | viability, T/C (second compound 0.1 µM, first compound 10 µM) 45.5% | viability, T/C [9] 113% | viability, T/C [10] 103% | viability, T/C [11] 79.2% | viability, T/C [12] 55.2% | viability, T/C (second compound 0.316 µM, first compound 3.16 µM) 48.9% | viability, T/C (second compound 0.316 µM, first compound 10 µM) 43.2% | viability, T/C [13] 100% | viability, T/C [14] 82.4% | viability, T/C [15] 74.5% | viability, T/C [16] 58.6% | viability, T/C (second compound 1 µM, first compound 3.16 µM) 50.1% | viability, T/C (second compound 1 µM, first compound 10 µM) 44.9% | viability, T/C [17] 102% | viability, T/C [18] 91.7% | viability, T/C [19] 74% | viability, T/C [20] 49.9% | viability, T/C (second compound 3.16 µM, first compound 3.16 µM) 46.6% | viability, T/C (second compound 3.16 µM, first compound 10 µM) 47.5% | viability, T/C [21] 123% | viability, T/C [22] 112% | viability, T/C [23] 85.7% | viability, T/C [24] 54.6% | viability, T/C (second compound 10 µM, first compound 3.16 µM) 47.1% | viability, T/C (second compound 10 µM, first compound 10 µM) 43.7%
